Measurements from PubChem BioAssay (NCI).
“And” between values parts separate entries of the source, which are not always exact repeats. Equal entries are not always repeated.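 Where inhibition never reached the appropriate level, the endpoint shown equals the highest concentration tested. Otherwise, values were interpolated linearly from a five-concentration, 48-hour dose response in 96-well plates. Abbreviation: GI50, concentration required for 50% inhibition of growth. The concentration for full growth arrest is given as TGI.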

Key:
Assay in all cases: inhibition of tumour cell growth, NCI panel, 48 h
[1] = tested on: M14 melanoma
[2] = tested on: MDA-MB-231 breast
[3] = tested on: OVCAR-4 ovarian
[4] = tested on: SK-MEL-2 melanoma
[5] = tested on: NCI-H522 lung
[6] = tested on: MDA-MB-435
[7] = tested on: BT-549 breast
[8] = tested on: UACC-62 melanoma
[9] = tested on: NCI/ADR-RES ovarian
[10] = tested on: A498 renal

| SMILES | TGI [1] | TGI [2] | TGI [3] | TGI [4] | TGI [5] | TGI [6] | TGI [7] | TGI [8] | TGI [9] | TGI [10] | GI50 [1] | GI50 [2] | GI50 [5] | GI50 [9] | GI50 [10] | GI50 [3] | GI50 [4] | GI50 [6] | GI50 [7] | GI50 [8] |
| --- | --- | --- | --- | --- | --- | --- | --- | --- | --- | --- | --- | --- | --- | --- | --- | --- | --- | --- | --- | --- |
| NS(=O)(=O)c1ccc(NC(=O)Nc2ccccc2F)cc1 | > 100 µM | > 100 µM | > 100 µM | > 100 µM | > 100 µM | > 100 µM | > 100 µM | > 100 µM | > 100 µM | > 100 µM |  |  |  |  |  |  |  |  |  |  |
| N#Cc1c2c(c(-c3cccs3)n(C3OC(CO)C(O)C(O)C3O)c1=S)CCc1ccccc1-2 (stereo not given) | > 100 µM | > 100 µM | > 100 µM | > 100 µM | > 100 µM | > 100 µM | > 100 µM | > 100 µM | > 100 µM | > 100 µM | > 100 µM | 15.5 µM and 37.3 µM | 12.8 µM and 3.62 µM | 13.4 µM and 39.5 µM | 5.6 µM and 15.7 µM |  |  |  |  |  |
| CCCCCc1c(C)[nH]c(/C=C2\N=C(c3ccc[nH]3)C=C2OCc2ccccc2)c1C | 0.0823 µM and 0.0748 µM | 0.257 µM and 0.0768 µM | 1.29 µM and 1.24 µM | 0.0753 µM and 0.0609 µM | 0.719 µM and 0.262 µM | 0.296 µM and 0.134 µM | 1.78 µM and 1.18 µM | 0.0538 µM and 0.0506 µM | 1.46 µM and 0.761 µM | 0.74 µM and 0.219 µM | 0.0296 µM and 0.0252 µM | 0.0244 µM | 0.0495 µM and 0.0237 µM | 0.255 µM and 0.0776 µM | 0.0411 µM and 0.0298 µM | 0.0463 µM and 0.0163 µM | 0.0297 µM and 0.0205 µM | 0.0367 µM and 0.0324 µM | 0.234 µM and 0.119 µM | 0.023 µM |
| CC(=O)N1CCN(CCOc2ccc(C3CCN(C4=Nn5c(nnc5C(F)(F)F)CC4)CC3)cc2)CC1 | > 100 µM | > 100 µM | > 100 µM | > 100 µM | > 100 µM | > 100 µM | > 100 µM | > 100 µM | > 100 µM | > 89.8 µM | 11.1 µM | 7.83 µM | 5 µM | 37 µM | 12.8 µM | 8.55 µM | 33.7 µM | 10.2 µM | 26.2 µM | 2.84 µM |
| CCOC(=O)Cc1csc(NC(=O)COC(=O)c2ccc(OC)cc2)n1 | > 100 µM | > 100 µM | > 100 µM | > 100 µM | 38.5 µM | > 100 µM | 66.3 µM | > 100 µM | > 100 µM | > 100 µM | > 100 µM | > 78.3 µM | 19.6 µM | > 100 µM | > 100 µM | 98.2 µM | > 100 µM | > 100 µM | 24.7 µM | > 100 µM |
| O=C(O)C(=O)CBr | > 100 µM | > 100 µM | 31.4 µM | > 100 µM and 37.5 µM | > 31.9 µM and 4.66 µM | > 100 µM and 32.7 µM | > 77.9 µM and 35.2 µM | > 62.5 µM and 35.3 µM | > 94.4 µM and 44 µM | > 100 µM | > 89.1 µM and 44 µM | > 100 µM | 2.22 µM | > 54.6 µM and 20.2 µM | > 100 µM | 17.5 µM and 17.4 µM | > 100 µM and 20 µM | > 70.4 µM and 18 µM | > 47.6 µM and 20 µM | > 44.7 µM and 19 µM |
| O=C(CCl)Nc1cc(O)c2c(c1)C(=O)c1cccc(O)c1C2=O | 3.45 µM | 5.88 µM | 7.23 µM | 3.93 µM | 0.384 µM | 4.72 µM | 3.3 µM | 3.84 µM | > 29.2 µM | 36.6 µM | 1.25 µM | 1.91 µM | 0.172 µM | 2.47 µM | 3.17 µM | 1.96 µM | 1.49 µM | 1.95 µM | 1.24 µM | 1.47 µM |
| O=C(Nc1ccc(I)cc1F)c1cc(I)ccc1O | 3.75 µM | 2.64 µM | > 100 µM | 1.59 µM | 21.8 µM | 7.9 µM | 2.48 µM | 1.22 µM | 3.85 µM | 1.24 µM | 0.773 µM | 0.639 µM | 0.327 µM | 0.791 µM | 0.324 µM | 0.798 µM | 0.319 µM | 0.723 µM | 0.548 µM | 0.312 µM |
| CO[C@H](C(=O)O)[C@@H]1Cc2cc3cc(OC4CC(OC5CC(O)C(O)C(C)O5)C(O)C(C)O4)c(C)c(O)c3c(O)c2C(=O)[C@H]1OC1CC(OC2CC(OC3CC(C)(O)C(O)C(C)O3)C(O)C(C)O2)C(O)C(C)O1 (stereo not given in full) | 3.59 µM | > 32.5 µM | > 32.5 µM | 1.56 µM | > 32.5 µM | 1.61 µM | 1.13 µM | 0.496 µM | > 32.5 µM | 0.773 µM | 0.443 µM | 0.553 µM | 0.134 µM | 10.1 µM | 0.135 µM | 0.607 µM | 0.335 µM | 0.309 µM | 0.136 µM | 0.108 µM |
| c1ccc2nc(OCCN3CC3)ccc2c1 | 23.9 µM | 26.3 µM | 25.3 µM | 31.6 µM | 4.04 µM | 17.9 µM | 37.7 µM | 34.1 µM | 44.5 µM | 30 µM | 8.15 µM | 7.95 µM | 1.71 µM | 18.1 µM | 14.2 µM | 10.3 µM | 13.5 µM | 3.31 µM | 20.7 µM | 13 µM |
| COc1cccc(C2=C(c3cn(C)c4cccc(OC)c34)C(=O)NC2=O)c1 | > 25 µM | > 25 µM | > 25 µM | > 25 µM | > 19.7 µM | > 9.17 µM | > 25 µM | > 25 µM | > 25 µM | > 25 µM | 7.98 µM | 17.9 µM | 1.67 µM | 5.28 µM | 4.9 µM | > 21.3 µM | 7.75 µM | 0.832 µM | 12.9 µM | 7.17 µM |
| O=C(Nc1cc(-c2cccnc2)nc(NCCCN2CCOCC2)n1)c1cc(Br)cc(C(F)(F)F)c1 | 3.32 µM | 3.93 µM | 14.5 µM | 17 µM | 5.31 µM | 3.15 µM | 15 µM | 4.38 µM | 9.11 µM | 13.4 µM | 1.67 µM | 1.79 µM | 1.95 µM | 2.6 µM | 3.43 µM | 3.26 µM | 4.52 µM | 1.66 µM | 3.27 µM | 1.94 µM |
